≈ marks a conversion by molar mass, not a printed value. Where “and” joins values, the source holds several entries; their conditions need not be identical. Identical values can stand only once. Like-named read-outs stand apart in the source and are kept apart here. *1 amine or outer side, *2 acyl side, *3 side chain or, on linkers, in order; H or OH if unused. Where a SMILES comes first, the peptide text is derived from it. [ ]: non-standard residue; d: D form. X5 = C=CCn1cc(C[C@@H](C(=O)[*:2])N(C)[*:1])c2ccccc21; NMeLeu(5-OH,4R) = CN[C@@H](C[C@@H](C)CO)C(=O)O; Phe(βR-OMe) = CO[C@H](c1ccccc1)[C@H](N)C(=O)O; NMeL = CN[C@@H](CC(C)C)C(=O)O
Legend:
Mtb # 11291 = test: microbe, parasite or virus in culture; format: cell-based; settings: single well replicates
Mtb ATCC 35825 = test: microbe, parasite or virus in culture; format: cell-based
Mtb # 8673 = test: microbe, parasite or virus in culture; format: cell-based
Mycobacterium fortuitum = test: microbe, parasite or virus in culture; format: cell-based
Mycobacterium avium = test: microbe, parasite or virus in culture; format: cell-based
Mycobacterium abscessus = test: microbe, parasite or virus in culture; format: cell-based
[1] = test system: Mycobacterium intracellulare; test: microbe, parasite or virus in culture; format: cell-based
in vitro = settings: human
Text: (§1) Supplementary Table 1. Structure-Activity Relationships part 1 (SPR, Caco-2) […]
(§2) SPR. Mean values ± standard deviation. Footnotes indicate the number of measurements performed for the respective compound: a) n = […]
(§3) [5] Permeability across Caco-2 monolayers in P(A−B): apical to basolateral and P(B−A): basolateral to apical direction (values reported in 10-
(§4) 6 cm s-1); efflux ratio = P(B−A)/P(A−B); Int. perm: mean value of P(A−B) and P(B−A). […] Influence of Trp-Nα methylation on P(A-B) and efflux
(§5) ratio. Bold: positive influence.

Caco-2 monolayers = test: in vitro
Text: as §1, §2, §3, §4, §5

[2] = Hepatocyte stability, mice; format: in vitro ADME
Protocol: (§6) Cryopreserved hepatocytes are incubated in an appropriate buffer system containing 50% species serum. Following an acclimation period (15–30 min) in an incubator (37 °C, 5−10% CO2, 85–95% humidity) the test compound is added to the hepatocyte suspension (pH 7.4, typical cell density of about 1 million cells/mL; final concentration of test compound is 1 µM, final DMSO concentration <0.05% v/v). The cells are incubated for up to 6 h and samples are taken at 6 different time points. Samples are then quenched with acetonitrile and pelleted by centrifugation. The remaining amount of parent compound in the supernatants is then analysed by HPLC-MS/MS. Clearance is calculated from compound half-lives using the well-stirred liver model and is converted to clearance stated as % of the liver blood flow (% Qh).

[3] = format: in vitro ADME, Rat
Protocol: as §6

[4] = format: in vitro ADME, Rat; remark: listed apart in the source
Protocol: (§7) The kinetics of compound degradation in liver microsomes is assessed in an assay with 1 µmol/l of compound and 0.5 mg/ml liver microsomes in a medium of 100 mM Tris-HCl pH 7.5, 6.5 mM MgCl2 and 1 mM NADPH at 37 °C. The reaction is stopped at multiple time points by adding acetonitrile. After centrifugation, the compound concentration is measured in the supernatants by high-performance liquid chromatography (HPLC) tandem mass spectrometry (MS/MS). The results are fitted to a first-order decay and the half-lives are converted to clearance (stated as % of the liver blood flow (%Qh)) using the well-stirred liver model.

[5] = Microsomal stability, human; format: in vitro ADME
Protocol: as §7

[6] = target: ClpC1 NTD protein (M. tuberculosis) (Mycobacterium tuberculosis, UniProt P9WPC9); test: biochemical; format: binding
Sequence of ClpC1 NTD protein (M. tuberculosis) (P9WPC9 1-156, looked up, natural form): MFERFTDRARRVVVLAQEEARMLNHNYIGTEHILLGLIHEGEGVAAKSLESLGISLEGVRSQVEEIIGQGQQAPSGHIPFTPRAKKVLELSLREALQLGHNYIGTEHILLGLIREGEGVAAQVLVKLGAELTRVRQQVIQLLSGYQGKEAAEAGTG

[7] = format: in vitro ADME, Human
Protocol: as §6

[8] = Experiment 2, three replicate columns

## Nc1ccc(C(=O)O)c(O)c1 [p-Aminosalicylic acid]
Mtb # 11291
  MIC Mtb # 11291: 1 µg/mL (≈ 6.53 µM)
Mtb # 11291; read-out: MIC Mtb # 11291
  MIC: 6.53 µM (≈ 1 µg/mL)
Mtb ATCC 35825; Mycobacterium tuberculosis, ATCC35825, mean, n = 2 well replicates
  MIC: 104 µM and 16 µg/mL
Mtb ATCC 35825; Mycobacterium tuberculosis, ATCC35825, single well replicates
  MIC: 16 µg/mL and 104 µM
Mtb ATCC 35825; single well replicates
  MIC: 104.48 µM (≈ 16 µg/mL)
  MIC Mtb ATCC 35825: 16 µg/mL (≈ 104 µM)
Mtb # 8673; Mycobacterium tuberculosis, mean, n = 2 well replicates
  MIC: 6.5 µM and 1 µg/mL
Mtb # 8673; Mycobacterium tuberculosis, single well replicates
  MIC: 6.53 µM and 1 µg/mL
Mtb # 8673; single well replicates
  MIC: 6.53 µM (≈ 1 µg/mL)
  MIC Mtb # 8673: 1 µg/mL (≈ 6.53 µM)

## CC[C@H]1OC(=O)[C@H](C)[C@@H](O[C@H]2C[C@@](C)(OC)[C@@H](O)[C@H](C)O2)[C@H](C)[C@@H](O[C@@H]2O[C@H](C)C[C@H](N(C)C)[C@H]2O)[C@](C)(OC)C[C@@H](C)C(=O)[C@H](C)[C@@H](O)[C@]1(C)O [Clarithromycin, reference compound]
Mycobacterium fortuitum; [8]
  MIC (µg/ml) Mycobacterium fortuitum: 0.50 µg/mL (≈ 0.668 µM)
Mycobacterium fortuitum; Experiment 2, three replicate columns, read-out: MIC (µM) Mycobacterium fortuitum
  MIC: 0.67 µM
Mycobacterium fortuitum; Mycolicibacterium fortuitum, Experiment 2, three replicate columns, read-out: MIC (µM) Mycobacterium fortuitum
  MIC: 0.67 µM
Mycobacterium fortuitum; Mycolicibacterium fortuitum, Experiment 2, three replicate columns, read-out: MIC (µg/ml) Mycobacterium fortuitum
  MIC: 0.5 µg/mL
Mycobacterium fortuitum; Mycolicibacterium fortuitum, mean ± SD, read-out: MIC Mycobacterium fortuitum
  MIC: 0.7 µM
Mycobacterium avium; [8]
  MIC (µg/ml) Mycobacterium avium: 0.25 µg/mL (≈ 0.334 µM)
Mycobacterium avium; Experiment 2, three replicate columns, read-out: MIC (µM) Mycobacterium avium
  MIC: 0.33 µM
Mycobacterium avium; Mycobacterium avium, Experiment 2, three replicate columns, read-out: MIC (µM) Mycobacterium avium
  MIC: 0.33 µM
Mycobacterium avium; Mycobacterium avium, Experiment 2, three replicate columns, read-out: MIC (µg/ml) Mycobacterium avium
  MIC: 0.25 µg/mL
Mycobacterium avium; Mycobacterium avium, mean ± SD, read-out: MIC Mycobacterium avium
  MIC: 0.3 µM
Mycobacterium abscessus; [8]
  MIC (µg/ml) Mycobacterium abscessus: 0.50 µg/mL (≈ 0.668 µM)
Mycobacterium abscessus; Experiment 2, three replicate columns, read-out: MIC (µM) Mycobacterium abscessus
  MIC: 0.67 µM
Mycobacterium abscessus; Mycobacteroides abscessus, Experiment 2, three replicate columns, read-out: MIC (µM) Mycobacterium abscessus
  MIC: 0.67 µM
Mycobacterium abscessus; Mycobacteroides abscessus, Experiment 2, three replicate columns, read-out: MIC (µg/ml) Mycobacterium abscessus
  MIC: 0.5 µg/mL
Mycobacterium abscessus; Mycobacteroides abscessus, mean ± SD, read-out: MIC Mycobacterium abscessus
  MIC: 0.7 µM
[1]; [8]
  MIC (µg/ml) Mycobacterium intracellulare: 0.13 µg/mL (≈ 0.174 µM)
[1]; Experiment 2, three replicate columns, read-out: MIC (µM) Mycobacterium intracellulare
  MIC: 0.17 µM
[1]; Mycobacterium intracellulare, Experiment 2, three replicate columns, read-out: MIC (µM) Mycobacterium intracellulare
  MIC: 0.17 µM
[1]; Mycobacterium intracellulare, Experiment 2, three replicate columns, read-out: MIC (µg/ml) Mycobacterium intracellulare
  MIC: 0.13 µg/mL
[1]; Mycobacterium intracellulare, mean ± SD, read-out: MIC Mycobacterium intracellulare
  MIC: 0.2 µM

## C=CCn1cc(C[C@H]2C(=O)N(C)[C@@H](C[C@@H](C)CO)C(=O)N[C@@H](C)C(=O)N[C@@H]([C@H](OC)c3ccccc3)C(=O)N[C@@H](C(C)C)C(=O)N(C)[C@@H](CC(C)C)C(=O)N[C@@H](C(C)C)C(=O)N2C)c2ccccc21 [SI-60] (cyclo(A[Phe(βR-OMe)]V[NMeL]V[X5][NMeLeu(5-OH,4R)]))
In vitro; Caco-2
  efflux ratio: 2.5
In vitro; Caco-2, CACO permeability PEAB, apical to basolateral
  Papp A→B: 46 ×10⁻⁶ cm/s
In vitro; Caco-2, CACO permeability PEBA, basolateral to apical
  Papp B→A: 49 ×10⁻⁶ cm/s
Caco-2 monolayers; apical to basolateral
  CACO permeability PEAB: 35 ×10⁻⁶ cm/s
Caco-2 monolayers; basolateral to apical
  CACO permeability PEBA: 88 ×10⁻⁶ cm/s
Caco-2 monolayers; influence of Trp-Nα methylation on P(A-B), matched pair, listed under the methylated partner
  Permeability Correlation P (A-B): 14.6
Caco-2 monolayers; influence of Trp-Nα methylation on efflux ratio, matched pair, listed under the methylated partner
  Permeability Correlation Ratio: 3.2
Caco-2 monolayers; mean value of P(A−B) and P(B−A)
  Caco-2 Int. Perm: 61.5 10-6 cm s-1
[2]; Mouse
  Hepatocyte Stability Mouse QH: 61.367%
[2]; clearance in hepatocytes
  Hepatocyte Mice: 61 %Qh
[3]; Rat
  Hepatocyte Stability Rat QH: 57.215%
[3]; clearance in hepatocytes
  Hepatocyte Rat: 57 %Qh
[4]; Rat
  Microsomal Stability Rat QH: >87.900%
[4]; clearance in microsomes
  Microsomal Stability Rat: > 88 %Qh
[5]; Human
  Microsomal Stability Human QH: >88.400%
[5]; clearance in microsomes
  Microsomal Stability Human: > 88 %Qh
[6]; SPR (Supplementary Table 1), read-out: KD ClpC1-NTD Mean ± SD
  Kd: 8 ± 3 nM
[6]; SPR, single independent measurements
  koff ClpC1-NTD: 0.04 s⁻¹
[6]; SPR, single independent measurements, read-out: KD ClpC1-NTD
  Kd: 9.87 nM and 5.93 nM
[6]; SPR, single independent measurements, read-out: koff ClpC1-NTD
  koff: 0.03 s⁻¹
[7]; Human
  Hepatocyte Stability Human QH: 50.176%
[7]; clearance in hepatocytes
  Hepatocyte Human: 50 %Qh

Reference: publication PMC10914731, “Homo-BacPROTAC-induced degradation of ClpC1 as a strategy against drug-resistant mycobacteria” (Nature Communications, 2024)
